Target: T1, full-length human PKCι (Homo sapiens, UniProt P41743)
T1 construct: Recombinant, full-length human PKCι expressed in Sf21 insect cells is also commercially available; purchased; host or cells: Sf21 insect cells
T1 sequence (P41743 1-596): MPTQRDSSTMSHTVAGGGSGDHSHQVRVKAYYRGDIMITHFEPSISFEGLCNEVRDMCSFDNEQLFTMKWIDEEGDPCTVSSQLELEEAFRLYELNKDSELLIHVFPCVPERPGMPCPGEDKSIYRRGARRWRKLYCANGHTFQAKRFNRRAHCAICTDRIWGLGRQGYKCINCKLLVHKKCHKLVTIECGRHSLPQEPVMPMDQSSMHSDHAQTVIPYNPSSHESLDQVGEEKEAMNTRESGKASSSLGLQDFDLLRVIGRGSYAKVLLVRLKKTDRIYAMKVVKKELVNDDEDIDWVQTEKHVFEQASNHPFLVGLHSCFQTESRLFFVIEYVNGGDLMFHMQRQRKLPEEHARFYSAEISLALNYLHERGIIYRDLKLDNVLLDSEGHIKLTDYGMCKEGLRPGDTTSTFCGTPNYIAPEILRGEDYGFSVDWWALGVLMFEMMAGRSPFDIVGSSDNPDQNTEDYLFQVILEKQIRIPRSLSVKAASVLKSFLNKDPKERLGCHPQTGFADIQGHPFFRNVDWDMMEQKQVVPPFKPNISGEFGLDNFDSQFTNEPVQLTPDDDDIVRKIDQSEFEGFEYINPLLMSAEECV
Experiment: PKCι IC50 IMAP assay, full-length PKCι at 150 μM ATP
Assay type: biochemical
Conditions: read-out: IC50 in IMAP assay against full length PKCi at 150 μM ATP
Outline: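 Recombinant full-length human PKCι (Sf21-expressed, typically 15 pM) phosphorylated 100 nM 5FAM-labelled PKCε pseudosubstrate-derived peptide with 150 μM ATP (5× KM^APP) in 18 mM tris-HCl pH7.5, 9 mM MgCl2, EGTA, DTT, 4% DMSO. After 60 min at room temperature, IMAP binding reagent was added for 2 h and fluorescence polarisation read.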

First: COc1cncc2nc(-c3ccnc(Nc4ccc(C)nc4)c3)nc(N3CCNCC3)c12 [Example 393, [4-(5-Methoxy-4-piperazin-1-yl-pyrido[3,4-d]pyrimidin-2-yl)-pyridin-2-yl]-(6-methyl-pyridin-3-yl)-amine]
Second: COc1cncc2nc(-c3ccnc(Nc4ccc(F)c(F)c4F)c3)nc(N3CCNCC3)c12 [Example 454, [4-(5-Methoxy-4-piperazin-1-yl-pyrido[3,4-d]pyrimidin-2-yl)-pyridin-2-yl]-(2,3,4-trifluoro-phenyl)-amine]
The IC50 of the first is lower: < 0.1 µM for the first, 0.1 to 1 µM for the second. The first is the more potent here.

`O[C@@H]1CCN(c2nc(-c3ccnc(Nc4ccccc4)c3)nc3cncc(C4CC4)c23)C[C@H]1O` (racemic) [Example 676, (+/−)-(trans)-1-[5-Cyclopropyl-2-(2-phenylamino-pyridin-4-yl)-pyrido[3,4-d]pyrimidin-4-yl]-piperidine-3,4-diol] and `O[C@@H]1CN(c2nc(-c3ccnc(Nc4ccccc4)c3)nc3cncc(C4CC4)c23)CC[C@@H]1O` (racemic) [Example 675, (+/−)-(cis)-1-[5-Cyclopropyl-2-(2-phenylamino-pyridin-4-yl)-pyrido[3,4-d]pyrimidin-4-yl]-piperidine-3,4-diol] fall in the same range of IC50: 0.1 to 1 µM for the first, 0.1 to 1 µM for the second.

Compared with `O=C(Nc1cc(-c2nc(N3CCNCC3)c3c(C4CC4)cncc3n2)ccn1)C(F)(F)c1ccccc1` [Example 2126, N-[4-(5-Cyclopropyl-4-piperazin-1-yl-pyrido[3,4-d]pyrimidin-2-yl)-pyridin-2-yl]-2,2-difluoro-2-phenyl-acetamide], `CC(O)c1ccccc1Nc1cc(-c2nc(N3CCNCC3)c3c(C4CC4)cncc3n2)ccn1` (centres unmarked) [Example 560, 1-{2-[4-(5-Cyclopropyl-4-piperazin-1-yl-pyrido[3,4-d]pyrimidin-2-yl)-pyridin-2-ylamino]-phenyl}-ethanol] is higher in IC50: < 0.1 µM for the first, 0.1 to 1 µM for the second.

`CC1(C)CN(c2nc(-c3ccnc(Nc4nc(F)c(C5CC5)cc4F)c3)nc3cncc(C4CC4)c23)CCN1` [Example 2125, (5-Cyclopropyl-3,6-difluoro-pyridin-2-yl)-{4-[5-cyclopropyl-4-(3,3-dimethyl-piperazin-1-yl)-pyrido[3,4-d]pyrimidin-2-yl]-pyridin-2-yl}-amine] and `CC1(C)CN(c2nc(-c3ccnc(Nc4nc(F)cc(F)c4F)c3)nc3cncc(C4CC4)c23)CCN1` [Example 845, {4-[5-Cyclopropyl-4-(3,3-dimethyl-piperazin-1-yl)-pyrido[3,4-d]pyrimidin-2-yl]-pyridin-2-yl}-(3,4,6-trifluoro-pyridin-2-yl)-amine] cannot be ordered by IC50: < 0.1 µM for the first, < 0.1 µM for the second.

`CN(c1nc(-c2ccnc(Nc3ncc(F)cc3F)c2)nc2cncc(C3CCC3)c12)C1CCNCC1` [Example 2157, {5-Cyclobutyl-2-[2-(3,5-difluoro-pyridin-2-ylamino)-pyridin-4-yl]-pyrido[3,4-d]pyrimidin-4-yl}-methyl-piperidin-4-yl-amine] and `CN(c1nc(-c2ccnc(Nc3nc(F)cc(F)c3F)c2)nc2cncc(C3CC3)c12)C1CCNCC1` [Example 2019, {5-Cyclopropyl-2-[2-(3,4,6-trifluoro-pyridin-2-ylamino)-pyridin-4-yl]-pyrido[3,4-d]pyrimidin-4-yl}-methyl-piperidin-4-yl-amine] cannot be ordered by IC50: < 0.1 µM for the first, < 0.1 µM for the second.

First: FC(F)(F)c1cc2c(-c3nc(N4CCCCC4)c4c(C5CC5)cncc4n3)ccnc2[nH]1 [Example 1237, 5-Cyclopropyl-4-piperidin-1-yl-2-(2-trifluoromethyl-1H-pyrrolo[2,3-b]pyridin-4-yl)-pyrido[3,4-d]pyrimidine]
Second: CC1(C)CN(c2nc(-c3ccnc4[nH]c(C(C)(C)C)cc34)nc3cncc(C4CC4)c23)CCN1 [Example 2002, 2-(2-tert-Butyl-1H-pyrrolo[2,3-b]pyridin-4-yl)-5-cyclopropyl-4-(3,3-dimethyl-piperazin-1-yl)-pyrido[3,4-d]pyrimidine]
The IC50 of the first is higher: 0.1 to 1 µM for the first, < 0.1 µM for the second.

`COc1cncc2nc(N3CCOCC3)nc(NC[C@@H](N)Cc3ccccc3)c12` [Example 1002, (S)-N^1-(5-Methoxy-2-morpholin-4-yl-pyrido[3,4-d]pyrimidin-4-yl)-3-phenyl-propane-1,2-diamine] and `COc1cncc2nc(-c3ccnc(Nc4ccc(N5CCOCC5)cc4F)c3)nc(N3CCNCC3)c12` [Example 418, (2-Fluoro-4-morpholin-4-yl-phenyl)-[4-(5-methoxy-4-piperazin-1-yl-pyrido[3,4-d]pyrimidin-2-yl)-pyridin-2-yl]-amine] cannot be ordered by IC50: < 0.1 µM for the first, < 0.1 µM for the second.

`c1cc(-c2nc(N3CCNCC3)c3c(C4CCC4)cncc3n2)c2cc(C3CCCCC3)[nH]c2n1` [Example 2153, 5-Cyclobutyl-2-(2-cyclohexyl-1H-pyrrolo[2,3-b]pyridin-4-yl)-4-piperazin-1-yl-pyrido[3,4-d]pyrimidine] and `c1cc(-c2nc(N3CCNCC3)c3c(C4CCC4)cncc3n2)c2cc(C3CCOC3)[nH]c2n1` (centres unmarked) [Example 2184, 5-Cyclobutyl-4-piperazin-1-yl-2-[2-(tetrahydro-furan-3-yl)-1H-pyrrolo[2,3-b]pyridin-4-yl]-pyrido[3,4-d]pyrimidine] cannot be ordered by IC50: < 0.1 µM for the first, < 0.1 µM for the second.

`Cn1nccc1-c1ccc(Nc2cc(-c3nc(N4CCNCC4)c4c(C5CC5)cncc4n3)ccn2)c(F)c1` [Example 2055, [4-(5-Cyclopropyl-4-piperazin-1-yl-pyrido[3,4-d]pyrimidin-2-yl)-pyridin-2-yl]-[2-fluoro-4-(2-methyl-2H-pyrazol-3-yl)-phenyl]-amine] and `CCc1ccc(Nc2cc(-c3nc(N4CCNCC4)c4c(C5CC5)cncc4n3)ccn2)c(F)c1` [Example 717, [4-(5-Cyclopropyl-4-piperazin-1-yl-pyrido[3,4-d]pyrimidin-2-yl)-pyridin-2-yl]-(4-ethyl-2-fluoro-phenyl)-amine] cannot be ordered by IC50: < 0.1 µM for the first, < 0.1 µM for the second.

`c1cc(-c2nc(N3CCNCC3)c3c(C4CC4)cncc3n2)ccn1` [Example 139, 1-[5-cyclopropyl-2-(pyridin-4-yl)pyrido[3,4-d]pyrimidin-4-yl]piperazine] and `C[C@@H](Nc1cc(-c2nc(N3CCNCC3)c3c(C4CC4)cncc3n2)ccn1)C1CC1` [Example 810, ((R)-1-Cyclopropyl-ethyl)-[4-(5-cyclopropyl-4-piperazin-1-yl-pyrido[3,4-d]pyrimidin-2-yl)-pyridin-2-yl]-amine] cannot be ordered by IC50: < 0.1 µM for the first, < 0.1 µM for the second.

First: CC(C)NC(=O)C1CCN(c2nc(-c3ccnc(Nc4c(F)cccc4F)c3)nc3cncc(C4CC4)c23)CC1 [Example 655, 1-{5-Cyclopropyl-2-[2-(2,6-difluoro-phenylamino)-pyridin-4-yl]-pyrido[3,4-d]pyrimidin-4-yl}-piperidine-4-carboxylic acid isopropylamide]
Second: Fc1cc(F)c(Nc2cc(-c3nc(N4CCNCC4)c4c(C5CC5)cncc4n3)ccn2)c(F)c1 [Example 650, [4-(5-Cyclopropyl-4-piperazin-1-yl-pyrido[3,4-d]pyrimidin-2-yl)-pyridin-2-yl]-(2,4,6-trifluoro-phenyl)-amine]
The IC50 of the first is higher: 1 to 10 µM for the first, < 0.1 µM for the second.

First: c1cc(-c2nc(N3CCNCC3)c3c(C4CC4)cncc3n2)cc(N[C@@H]2C[C@H]3CC[C@@H]2O3)n1 (racemic) [Example 2093, (±)-exo-[4-(5-Cyclopropyl-4-piperazin-1-yl-pyrido[3,4-d]pyrimidin-2-yl)-pyridin-2-yl]--7-oxa-bicyclo[2.2.1]hept-2-yl-amine]
Second: c1cc(Nc2cc(-c3nc(N4CCC4)c4c(C5CC5)cncc4n3)ccn2)cc(N2CCNCC2)c1 [Example 767, [4-(4-Azetidin-1-yl-5-cyclopropyl-pyrido[3,4-d]pyrimidin-2-yl)-pyridin-2-yl]-(3-piperazin-1-yl-phenyl)-amine]
The IC50 of the first is lower: < 0.1 µM for the first, 0.1 to 1 µM for the second. The first is the more potent here.

First: COc1cncc2nc(-c3ccncc3)nc(N3C[C@@H](C)N[C@@H](C)C3)c12 [Example 51, 1-[5-methoxy-2-(pyridin-4-yl)-pyrido[3,4-d]-pyrimidin-4-yl]-3,5-cis-dimethylpiperazine]
Second: CCc1cc2c(-c3nc(N4CCNCC4)c4c(OC)cncc4n3)ccnc2[nH]1 [Example 1204, 2-(2-Ethyl-1H-pyrrolo[2,3-b]pyridin-4-yl)-5methoxy-4-piperazin-1-yl-pyrido[3,4-d]pyrimidine]
The IC50 of the first is higher: 1 to 10 µM for the first, 0.1 to 1 µM for the second. The second is the more potent here.

`CC1(C)CNCCC1Nc1nc(-c2ccnc(Nc3nc(F)c(F)cc3F)c2)nc2cncc(C3CC3)c12` (centres unmarked) [Example 2176, {5-Cyclopropyl-2-[2-(3,5,6-trifluoro-pyridin-2-ylamino)-pyridin-4-yl]-pyrido[3,4-d]pyrimidin-4-yl}-(3,3-dimethyl-piperidin-4-yl)-amine] and `Fc1cccnc1Nc1cc(-c2nc(N3CCNCC3)c3c(C4CCC4)cncc3n2)ccn1` [Example 784, [4-(5-Cyclobutyl-4-piperazin-1-yl-pyrido[3,4-d]pyrimidin-2-yl)-pyridin-2-yl]-(3-fluoro-pyridin-2-yl)-amine] cannot be ordered by IC50: < 0.1 µM for the first, < 0.1 µM for the second.

In the case of `Cc1cccc(Nc2cc(-c3nc(N4CCNCC4)c4c(C5CC5)cncc4n3)ccn2)c1F` [Example 574, [4-(5-Cyclopropyl-4-piperazin-1-yl-pyrido[3,4-d]pyrimidin-2-yl)-pyridin-2-yl]-(2-fluoro-3-methyl-phenyl)-amine], the IC50 is reported as < 0.1 µM.

From US9914730B2, “Azaquinazoline inhibitors of Atypical protein Kinase C” (Ignyta, Inc., priority 2012, dated 2018)
